According to PubChem BioAssay AID1963861 (Molecular Pharmacology Branch, DTP, NCI, 2024):

Tested on: 885724-159-R-J1-PDC KRAS PDC multicell spheroid viability
Assay: Anticancer human tumor 885724-159-R-J1-PDC patient-derived pancreatic adenocarcinoma cell line growth inhibition [KRAS2]
Details: for IC50: curve of first compound; for viability, T/C: stronger effect = lower value
How it was run: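 Combination screen of spheroid viability in tumor-cell co-cultures with endothelial (HUVEC) and mesenchymal stem cell stroma. Each agent was tested in half-log dilutions, topping at clinical Cmax or at 10 microM without a known Cmax.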

[1] = second compound 0.0316 µM, first compound 0.000316 µM
[2] = second compound 0.0316 µM, first compound 0.001 µM
[3] = second compound 0.0316 µM, first compound 0.00316 µM
[4] = second compound 0.0316 µM, first compound 0.01 µM
[5] = second compound 0.0316 µM, first compound 0.0316 µM
[6] = second compound 0.1 µM, first compound 0.000316 µM
[7] = second compound 0.1 µM, first compound 0.001 µM
[8] = second compound 0.1 µM, first compound 0.00316 µM
[9] = second compound 0.1 µM, first compound 0.01 µM
[10] = second compound 0.1 µM, first compound 0.0316 µM
[11] = second compound 0.316 µM, first compound 0.000316 µM
[12] = second compound 0.316 µM, first compound 0.001 µM
[13] = second compound 0.316 µM, first compound 0.00316 µM
[14] = second compound 0.316 µM, first compound 0.01 µM
[15] = second compound 0.316 µM, first compound 0.0316 µM
[16] = second compound 1 µM, first compound 0.000316 µM
[17] = second compound 1 µM, first compound 0.001 µM
[18] = second compound 1 µM, first compound 0.00316 µM
[19] = second compound 1 µM, first compound 0.01 µM
[20] = second compound 1 µM, first compound 0.0316 µM
[21] = second compound 3.16 µM, first compound 0.000316 µM
[22] = second compound 3.16 µM, first compound 0.001 µM
[23] = second compound 3.16 µM, first compound 0.00316 µM
[24] = second compound 3.16 µM, first compound 0.01 µM
[25] = second compound 3.16 µM, first compound 0.0316 µM
[26] = second compound 0.0316 µM, first compound 0.1 µM
[27] = second compound 0.1 µM, first compound 0.1 µM
[28] = second compound 0.316 µM, first compound 0.1 µM
[29] = second compound 1 µM, first compound 0.1 µM
[30] = second compound 3.16 µM, first compound 0.1 µM
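Note: spheroids exposed to agents for 7 days before readout.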

| SMILES | IC50 (second compound 0.0316 µM) [nM] | IC50 (second compound 0.1 µM) [nM] | IC50 (second compound 0.316 µM) [nM] | IC50 (second compound 1 µM) [nM] | IC50 (second compound 3.16 µM) [nM] | viability, T/C [1] [%] | viability, T/C [2] [%] | viability, T/C [3] [%] | viability, T/C [4] [%] | viability, T/C [5] [%] | viability, T/C [6] [%] | viability, T/C [7] [%] | viability, T/C [9] [%] | viability, T/C [10] [%] | viability, T/C [14] [%] | viability, T/C [15] [%] | viability, T/C [19] [%] | viability, T/C [20] [%] | viability, T/C [24] [%] | viability, T/C [25] [%] | further results |
| --- | --- | --- | --- | --- | --- | --- | --- | --- | --- | --- | --- | --- | --- | --- | --- | --- | --- | --- | --- | --- | --- |
| CC(=O)Nc1cccc(-n2c(=O)n(C3CC3)c(=O)c3c(Nc4ccc(I)cc4F)n(C)c(=O)c(C)c32)c1 + C=CC(=O)N1CCN(c2nc(OCC3CCCN3C)nc3c2CCN(c2cccc4cccc(C)c24)C3)CC1CC#N | 1.33 | 1.48 | 0.933 | 0.625 | < 0.1 | 78.7 | 51.3 | 38.5 | 31 | 20.8 | 84 | 54.2 | 28.9 | 20.4 | 28.7 | 20.4 | 21.8 | 18.6 | 5.46 | 8.49 | viability, T/C (second compound 0.0316 µM, first compound 0.0001 µM): 107%; viability, T/C (second compound 0.1 µM, first compound 0.0001 µM): 92.3%; viability, T/C [8]: 37.3%; viability, T/C (second compound 0.316 µM, first compound 0.0001 µM): 92.6%; viability, T/C [11]: 74.8%; viability, T/C [12]: 45.1%; viability, T/C [13]: 34.8%; viability, T/C (second compound 1 µM, first compound 0.0001 µM): 85.1%; viability, T/C [16]: 64.3%; viability, T/C [17]: 39.5%; viability, T/C [18]: 27.7%; viability, T/C (second compound 3.16 µM, first compound 0.0001 µM): 45.4%; viability, T/C [21]: 37.8%; viability, T/C [22]: 18.8%; viability, T/C [23]: 18.8% |
| CC(=O)OC12COC1CC(O)C1(C)C(=O)C(O)C3=C(C)C(OC(=O)C(O)C(NC(=O)OC(C)(C)C)c4ccccc4)CC(O)(C(OC(=O)c4ccccc4)C21)C3(C)C (stereo not given) + C=CC(=O)N1CCN(c2nc(OCC3CCCN3C)nc3c2CCN(c2cccc4cccc(C)c24)C3)CC1CC#N | > 3160 | > 3160 | > 3160 | > 3160 | > 3160 | – | – | – | 86.9 | 95.8 | – | – | 87.5 | 94.9 | 85.5 | 97.5 | 82.6 | 86.9 | 87.2 | 100 | viability, T/C [26]: 102%; viability, T/C (second compound 0.0316 µM, first compound 0.316 µM): 101%; viability, T/C (second compound 0.0316 µM, first compound 1 µM): 110%; viability, T/C (second compound 0.0316 µM, first compound 3.16 µM): 109%; viability, T/C [27]: 97%; viability, T/C (second compound 0.1 µM, first compound 0.316 µM): 106%; viability, T/C (second compound 0.1 µM, first compound 1 µM): 116%; viability, T/C (second compound 0.1 µM, first compound 3.16 µM): 115%; viability, T/C [28]: 92.8%; viability, T/C (second compound 0.316 µM, first compound 0.316 µM): 101%; viability, T/C (second compound 0.316 µM, first compound 1 µM): 115%; viability, T/C (second compound 0.316 µM, first compound 3.16 µM): 103%; viability, T/C [29]: 91.8%; viability, T/C (second compound 1 µM, first compound 0.316 µM): 96.7%; viability, T/C (second compound 1 µM, first compound 1 µM): 99.2%; viability, T/C (second compound 1 µM, first compound 3.16 µM): 96.7%; viability, T/C [30]: 99.6%; viability, T/C (second compound 3.16 µM, first compound 0.316 µM): 105%; viability, T/C (second compound 3.16 µM, first compound 1 µM): 111%; viability, T/C (second compound 3.16 µM, first compound 3.16 µM): 115% |
| CN(C)C/C=C/C(=O)Nc1cc2c(Nc3ccc(F)c(Cl)c3)ncnc2cc1O[C@H]1CCOC1 + C=CC(=O)N1CCN(c2nc(OCC3CCCN3C)nc3c2CCN(c2cccc4cccc(C)c24)C3)CC1CC#N | > 100 | > 100 | > 100 | > 100 | 1.57 | 116 | 112 | 98.5 | 94.5 | 89.1 | 109 | 101 | 83.1 | 77.4 | 84.1 | 72 | 78.4 | 68.7 | 37.7 | 36.4 | viability, T/C [26]: 80.3%; viability, T/C [8]: 96.5%; viability, T/C [27]: 72%; viability, T/C [11]: 105%; viability, T/C [12]: 106%; viability, T/C [13]: 92.4%; viability, T/C [28]: 65.7%; viability, T/C [16]: 95%; viability, T/C [17]: 100%; viability, T/C [18]: 86.8%; viability, T/C [29]: 63.9%; viability, T/C [21]: 61.5%; viability, T/C [22]: 55.9%; viability, T/C [23]: 40.8%; viability, T/C [30]: 37.7% |
